Measurements taken from US20220220135A1 (BAR-ILAN UNIVERSITY, priority 2019, published 2022).

Tests used:
NTPDase3 = molecular target: T1, NTPDase3 (Homo sapiens, UniProt O75355); assay: Stability to hydrolysis by human NTPDase3; assay type: in vitro ADME; details: analogue 100 μM; activity with 100 μM ATP = 100%
T1 sequence (O75355 1-529): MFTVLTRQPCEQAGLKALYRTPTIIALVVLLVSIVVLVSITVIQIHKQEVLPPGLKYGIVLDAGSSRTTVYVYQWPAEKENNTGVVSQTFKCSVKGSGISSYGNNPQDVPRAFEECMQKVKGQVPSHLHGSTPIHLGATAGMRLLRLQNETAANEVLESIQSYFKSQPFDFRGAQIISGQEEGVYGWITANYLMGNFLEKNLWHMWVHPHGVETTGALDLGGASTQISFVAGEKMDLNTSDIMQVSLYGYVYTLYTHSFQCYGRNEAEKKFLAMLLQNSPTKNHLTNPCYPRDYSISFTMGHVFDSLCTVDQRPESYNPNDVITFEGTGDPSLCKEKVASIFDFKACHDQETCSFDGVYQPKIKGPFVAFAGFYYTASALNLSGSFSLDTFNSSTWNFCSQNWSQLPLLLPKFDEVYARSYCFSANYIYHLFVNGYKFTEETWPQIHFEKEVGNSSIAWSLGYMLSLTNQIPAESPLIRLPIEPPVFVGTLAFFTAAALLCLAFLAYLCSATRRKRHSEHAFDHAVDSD
Method: (§1) Uridine 5′-Pα,α-phosphorodithioate analogues, 9-12, were tested for their stability to degradation by NPP1 and NTPDases. These enzymes are involved in the metabolism of extracellular nucleotides. Analogues 9-12 were not hydrolyzed by hNPP1 (Table 2). […] Analogue 10 was hydrolyzed by hNTPDase1, -2 and -3 at 30-39% the rate of ATP and was slightly hydrolyzed by human NTPDase8 at 16% the rate of ATP.
(§2) Analogues 9-12 were incubated in the presence of the indicated ectonucleotidase at a concentration of 100 μM. The activity with 100 μM ATP was set as 100%, which was 329±108, 302±34, 263±51, 195±76 nmol of Pi·min−1·mg of protein−1 for NTPDase1, -2, -3 and -8, respectively, and 34±7 nmol for NPP1. Data presented are the mean±SEM of results from two experiments.

NTPDase2 = molecular target: T2, NTPDase2 (Homo sapiens, UniProt Q9Y5L3); assay: Stability to hydrolysis by human NTPDase2; assay type: in vitro ADME; details: analogue 100 μM; activity with 100 μM ATP = 100%
T2 sequence (Q9Y5L3 1-495): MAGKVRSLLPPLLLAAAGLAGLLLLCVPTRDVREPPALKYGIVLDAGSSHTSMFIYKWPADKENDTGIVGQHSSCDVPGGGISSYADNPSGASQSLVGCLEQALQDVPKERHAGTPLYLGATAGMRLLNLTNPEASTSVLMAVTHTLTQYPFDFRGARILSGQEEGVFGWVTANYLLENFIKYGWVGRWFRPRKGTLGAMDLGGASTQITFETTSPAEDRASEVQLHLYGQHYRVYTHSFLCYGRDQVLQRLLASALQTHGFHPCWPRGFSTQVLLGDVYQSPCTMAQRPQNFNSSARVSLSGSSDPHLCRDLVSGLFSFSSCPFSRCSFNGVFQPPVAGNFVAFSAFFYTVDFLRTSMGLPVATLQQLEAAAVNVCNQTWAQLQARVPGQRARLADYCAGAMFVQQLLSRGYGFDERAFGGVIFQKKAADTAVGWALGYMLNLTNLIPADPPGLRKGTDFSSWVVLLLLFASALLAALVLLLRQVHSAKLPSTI
Method: as §1, §2

NPP1 = molecular target: T3, NPP1 (Homo sapiens, UniProt P22413); assay: Inhibition of human NPP1, ATP as substrate (analogues 9-12); assay type: biochemical; details: ATP (100 μM) as the substrate
T3 sequence (P22413 1-925): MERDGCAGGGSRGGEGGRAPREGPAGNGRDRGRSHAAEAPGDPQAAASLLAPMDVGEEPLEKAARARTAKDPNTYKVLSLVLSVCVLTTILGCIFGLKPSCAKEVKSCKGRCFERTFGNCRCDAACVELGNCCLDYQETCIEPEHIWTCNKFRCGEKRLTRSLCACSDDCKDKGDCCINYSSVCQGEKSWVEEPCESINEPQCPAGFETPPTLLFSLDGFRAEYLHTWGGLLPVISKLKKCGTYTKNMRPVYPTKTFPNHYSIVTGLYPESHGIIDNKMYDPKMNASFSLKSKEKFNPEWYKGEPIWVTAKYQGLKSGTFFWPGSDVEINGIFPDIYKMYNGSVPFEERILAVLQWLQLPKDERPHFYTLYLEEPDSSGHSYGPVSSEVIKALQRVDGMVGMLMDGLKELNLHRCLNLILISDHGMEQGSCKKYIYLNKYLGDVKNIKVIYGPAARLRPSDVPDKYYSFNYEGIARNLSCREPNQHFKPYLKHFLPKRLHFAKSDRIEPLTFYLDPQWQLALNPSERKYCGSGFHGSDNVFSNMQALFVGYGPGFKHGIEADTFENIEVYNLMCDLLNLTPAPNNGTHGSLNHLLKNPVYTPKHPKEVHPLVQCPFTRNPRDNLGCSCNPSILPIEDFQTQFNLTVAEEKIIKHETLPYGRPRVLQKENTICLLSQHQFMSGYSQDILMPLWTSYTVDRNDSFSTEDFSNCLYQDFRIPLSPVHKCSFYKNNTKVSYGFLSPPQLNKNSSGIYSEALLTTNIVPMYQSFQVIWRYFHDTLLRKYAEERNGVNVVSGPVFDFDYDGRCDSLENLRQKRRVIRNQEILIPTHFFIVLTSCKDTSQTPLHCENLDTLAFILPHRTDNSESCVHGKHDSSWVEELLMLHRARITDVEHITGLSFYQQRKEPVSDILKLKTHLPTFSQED
Method: FIG. 2: Inhibition of NTPDases and NPPs by analogues 9-12 using as substrates ATP (100 μM) for NTPDase1,2,3,8 and pNP-TMP (100 μM) for NPP1,3 (Panel A); and ATP (100 μM) was used as the substrate for NPP1 (Panel B);
At least 2 independent experiments were performed. In panel A, the activity with 100 μM ATP was set as 100%, which was 287±31, 395±67, 278±22, 119±26 nmol of Pi·min−1·mg of protein−1 for human NTPDase1, -2, -3 and -8, respectively, and the activity with 100 μM pNP-TMP was set as 100% which was 67±5, 21±1 nmol of p-nitrophenol·min−1·mg of protein−1 for human NPP1 and NPP3, respectively. In panel B, the activity with 100 μM ATP was set as 100% which was 34±7 nmol of PPi·min−1·mg of protein−1 for NPP1.

SMILES | Relative activity (%) ± SEM of ATP hydrolysis, NTPDase3 (NTPDase3) | Relative activity (%) ± SEM of ATP hydrolysis, NTPDase2 (NTPDase2) | inhibition of human NPP1 activity (NPP1)
O=c1ccn([C@@H]2O[C@H](COP(=S)(S)OP(=O)(O)OP(=O)(O)O)[C@@H](O)[C@H]2O)c(=O)[nH]1 (stereo partly drawn) [Analogue 10] | 39.7 ± 1.9% | 32.0 ± 3.3% | 
O=c1ccn([C@@H]2O[C@H](COP(=S)(S)OP(=O)(O)OP(=O)(O)OP(=S)(S)OC[C@H]3O[C@@H](n4ccc(=O)[nH]c4=O)[C@H](O)[C@@H]3O)[C@@H](O)[C@H]2O)c(=O)[nH]1 (stereo partly drawn) [Analogue 12] |  |  | effectively blocked
